Experimental data taken from patent US20130005833A1, “PHOTO-RESPONSIVE SUPRAMOLECULAR HYDROGELS” (priority 2011, published 2013).
Azo = N-terminal azobenzene

Columns and labels:
Assay type in all cases: physicochemical
[1] = Hydrogelation conditions: lowest concentration to gel water at specific pH; parameters: key to pH (hydrogelation condition): —: unable to form hydrogel under tested conditions; settings: for pH (to form a hydrogel): azobenzene substituted bio-active short peptides
Experimental: Preparation of Hydrogels. A homogeneous solution of azobenzene-substituted short peptides was prepared in a glass vial via pH adjustment and heating. Upon cooling to room temperature, a hydrogel formed for Azo-Gln-Phe-Ala; Azo-Lys-Phe-Ala; Azo-Leu- Phe-Ala; Azo-D-Lys-D-Phe-D-Ala; and Azo-Arg-Phe-Ala. However, Azo-Lys-D-Phe-D-Ala and Azo-D-Lys-Phe-Ala, sonification was necessary to facilitate the hydrogelation. Hydrogels of Azo-Ser-Phe-Ala; Azo-Gln-Tyr-Ala; Azo-Glu-Tyr-Ala; and Azo-Glu-Phe-Ala were prepared by acidifying the basic solution to the pH shown in Table 1.
Test on pH and salt effects on gelation properties. pH effect: Azo-dipeptides were mixed with a small quality of water and the mixture were adjusted to the desired pH with 1M HCl or NaOH, then heated to about 80-90° C. to obtain a clear solution. A yellow hydrogel formed upon cooling to room temperature. The lowest concentration for hydrogelation at a specific pH was obtained by successive dilution of the hydrogel using water, at the same pH that of the hydrogelation, to the point when hydrogel could not form.

[2] = Salt effect on gelation properties; settings: buffer of higher concentration of Na2HPO4/NaH2PO4; FIG. 1B
Experimental: Salt effect: Buffers at different pHs (5 and 6) and different concentrations (0.05M, 0.1M, 0.2M and 0.5M) were prepared by mixing Na2HPO4 and NaH2PO4 with different concentration. The azo-dipeptides were mixed with a small quality of buffer and heated to about 80-90° C. to obtain a clear solution. Yellow hydrogels formed upon cooling to room temperature. The lowest concentration for hydrogelation at specific pH was obtained by successive dilution of the hydrogel by the buffer with the same concentration of salt to the point when the hydrogel no longer formed.

[3] = Temperature for gel to solution phase transition; settings: for T (° C.): temperature for gel to solution phase transition: azobenzene substituted tripeptide hydrogels
[4] = Photo-response tests on the hydrogels (UV irradiation); parameters: key to tinit(min): time needed for initial collapse of the gel upon UV irradiation: —: no obvious change upon UV irradiation; settings: for tinit(min): time needed for initial collapse of the gel upon UV irradiation: high pressure mercury lamp (500 w); for total irradiation time needed for the gel to begin to collapse (tinit): UV irradiation (365 nm), Azo-Lys-Phe-Ala: partial phase transition; for photo-response of the gel upon UV irradiation (in words): Azo-Glu-Phe-Ala: even after 5 hours of UV-irradiation
Experimental: (§1) Photo-response tests on the hydrogels. The light source for the UV irradiation was a high pressure mercury lamp (500 w) with a filter to cut off visible light. A control experiment was performed in parallel using the same hydrogel in a tin foil covered glass vial to exclude the possibility of response induced by any external stimulus other than light irradiation. The photo-response of the hydrogels was confirmed by observation of the gel to solution phase change of the sample under irradiation, but not on the sample of negative control. In one example, ^1H NMR of Azo-Lys-D-Ala-D-Ala in d-MeOH was used to confirm that after UV irradiation for 2 minutes 11% of the compound was in the cis-configuration, and after 10 minutes, 51% was in the cis-configuration.

[5] = 1H NMR determination of cis-configuration after UV irradiation; settings: 1H NMR in d-MeOH
Experimental: as §1

[6] = Rheology test on the hydrogel before and after UV irradiation
Experimental: Rheology test on the hydrogel before and after UV irradiation. All rheological measurements were performed using an ARES-G2 Rheometer with a cone and a plate (25 mm diameter plate and 0.0999 rad cone angle), and a gap opening between the cone and the plate of 0.0282 mm. The dynamic strain sweep test was carried out at 6.282 rad/s, and then dynamic frequency sweep test was investigated at critical strain, which was determined from storage-strain profile.

[7] = azobenzene substituted dipeptides
[8] = azobenzene substituted tripeptides, pH at which the lowest gelling concentration applies

## Azo-Ala-Phe
[1]; [7]
  pH (hydrogelation condition): 9.5

## Azo-Ala-Tyr
[1]; [7]
  pH (hydrogelation condition): 5.1
[2]
  salt effect on concentration required for hydrogelation: decreased the concentration required for hydrogelation

## Azo-Arg-Ala
[1]; [7]
  pH (hydrogelation condition): —

## Azo-Arg-Gln
[1]; [7]
  pH (hydrogelation condition): —

## Azo-Arg-Lys
[1]; [7]
  pH (hydrogelation condition): —

## Azo-Arg-Phe
[1]; [7]
  pH (hydrogelation condition): —

## Azo-Arg-Phe-Ala
[1]; [8]
  pH (hydrogelation condition): 1.6
[3]
  T (° C.): temperature for gel to solution phase transition: 47 °C
[4]
  tinit(min): time needed for initial collapse of the gel upon UV irradiation: 8 min

## Azo-D-Lys-D-Phe-D-Ala
[1]; [8]
  pH (hydrogelation condition): 1.6
[3]
  T (° C.): temperature for gel to solution phase transition: 60 °C
[4]
  tinit(min): time needed for initial collapse of the gel upon UV irradiation: 15 min

## Azo-D-Lys-Phe-Ala
[1]; [8]
  pH (hydrogelation condition): 1.4
[3]
  T (° C.): temperature for gel to solution phase transition: 39 °C
[4]
  tinit(min): time needed for initial collapse of the gel upon UV irradiation: 4 min

## Azo-GAGAS
[1]
  pH (to form a hydrogel): 3.9

## Azo-Gln-Ala
[1]; [7]
  pH (hydrogelation condition): 2.5

## Azo-Gln-Gln
[1]; [7]
  pH (hydrogelation condition): —^b

## Azo-Gln-Phe-Ala
[1]; [8]
  pH (hydrogelation condition): 7.8
[3]
  T (° C.): temperature for gel to solution phase transition: 65 °C
[4]
  total irradiation time needed for the gel to begin to collapse (tinit): ≤ 3 min
  tinit(min): time needed for initial collapse of the gel upon UV irradiation: 3 min
[4]; UV light (365 nm), without external heating
  time to complete conversion of the hydrogel into a homogeneous non-viscous solution: under 20 minutes

## Azo-Gln-Tyr
[1]; [7]
  pH (hydrogelation condition): 4.8

## Azo-Gln-Tyr-Ala
[1]; [8]
  pH (hydrogelation condition): 3.1
[3]
  T (° C.): temperature for gel to solution phase transition: 81 °C
[4]
  tinit(min): time needed for initial collapse of the gel upon UV irradiation: —

## Azo-Glu-Ala
[1]; [7]
  pH (hydrogelation condition): 2.4

## Azo-Glu-Lys
[1]; [7]
  pH (hydrogelation condition): —

## Azo-Glu-Phe
[1]; [7]
  pH (hydrogelation condition): 2.5

## Azo-Glu-Phe-Ala
[1]; [8]
  pH (hydrogelation condition): 4.7
[3]
  T (° C.): temperature for gel to solution phase transition: 85 °C
[4]
  photo-response of the gel upon UV irradiation (in words): No photo-response was observed
  tinit(min): time needed for initial collapse of the gel upon UV irradiation: —^d

## Azo-Glu-Tyr
[1]; [7]
  pH (hydrogelation condition): 4.8
[2]
  salt effect on concentration required for hydrogelation: almost negligible

## Azo-Glu-Tyr-Ala
[1]; [8]
  pH (hydrogelation condition): 3.0
[3]
  T (° C.): temperature for gel to solution phase transition: 69 °C
[4]
  tinit(min): time needed for initial collapse of the gel upon UV irradiation: —

## Azo-Gly-Phe-Ala
[1]; [8]
  pH (hydrogelation condition): 7.5
[3]
  T (° C.): temperature for gel to solution phase transition: 48 °C
[4]
  photo-response of the gel upon UV irradiation (in words): fast responses
  total irradiation time needed for the gel to begin to collapse (tinit): 5 min
  tinit(min): time needed for initial collapse of the gel upon UV irradiation: 5 min

## Azo-IKVAV
[1]
  pH (to form a hydrogel): 4.5

## Azo-LGAGGAG (Azo-LGAGGAG-OH)
[1]
  pH (to form a hydrogel): 1.6

## Azo-Leu-Phe-Ala
[1]; [8]
  pH (hydrogelation condition): 8.6
[3]
  T (° C.): temperature for gel to solution phase transition: 71 °C
[4]
  tinit(min): time needed for initial collapse of the gel upon UV irradiation: 15 min

## Azo-Lys-Ala
[1]; [7]
  pH (hydrogelation condition): —

## Azo-Lys-D-Ala-D-Ala
[5]; after UV irradiation for 2 minutes
  compound in the cis-configuration: 11%
[5]; after UV irradiation for 10 minutes
  compound in the cis-configuration: 51%

## Azo-Lys-D-Phe-D-Ala
[1]; [8]
  pH (hydrogelation condition): 1.2
[3]
  temperature at which the gel turned into a solution upon heating: 42 °C
  T (° C.): temperature for gel to solution phase transition: 42 °C
[4]
  photo-response of the gel upon UV irradiation (in words): fast responses
  total irradiation time needed for the gel to begin to collapse (tinit): 7 min
  tinit(min): time needed for initial collapse of the gel upon UV irradiation: 7 min
[6]; dynamic frequency sweep test, FIG. 4B
  decrease in the storage modulus of the hydrogel after UV irradiation: greater than 100 times
[6]; dynamic strain sweep test, FIG. 4A
  storage modulus of the hydrogel before UV irradiation relative to after UV irradiation: 70 times

## Azo-Lys-Phe-Ala
[1]; [8]
  pH (hydrogelation condition): 1.6
[3]
  T (° C.): temperature for gel to solution phase transition: 59 °C
[4]
  total irradiation time needed for the gel to begin to collapse (tinit): 30 min
  tinit(min): time needed for initial collapse of the gel upon UV irradiation: 30 min

## Azo-Phe-Ala
[1]; [7]
  pH (hydrogelation condition): 7.8

## Azo-Phe-Glu
[1]; [7]
  pH (hydrogelation condition): 2.1

## Azo-Phe-Phe
[1]; [7]
  pH (hydrogelation condition): 9.7

## Azo-Phe-Ser
[1]; [7]
  pH (hydrogelation condition): 2.0

## Azo-Phe-Tyr
[1]; [7]
  pH (hydrogelation condition): 8.6

## Azo-Ser-Ala
[1]; [7]
  pH (hydrogelation condition): —

## Azo-Ser-Phe
[1]; [7]
  pH (hydrogelation condition): 5.7

## Azo-Ser-Phe-Ala
[1]; [8]
  pH (hydrogelation condition): 3.7
[3]
  T (° C.): temperature for gel to solution phase transition: 54 °C
[4]
  tinit(min): time needed for initial collapse of the gel upon UV irradiation: —^d

## Azo-Tyr-Ala
[1]; [7]
  pH (hydrogelation condition): 3.0

## Azo-Tyr-Lys
[1]; [7]
  pH (hydrogelation condition): 2.2

## Azo-Tyr-Tyr
[1]; [7]
  pH (hydrogelation condition): 4.8
[2]
  salt effect on concentration required for hydrogelation: decreased the concentration required for hydrogelation

## Azo-VYGGG
[1]
  pH (to form a hydrogel): 2.8

## Azo-YSV
[1]
  pH (to form a hydrogel): 1.8
